Results from PMC3639963, “A New Class of Small Molecule Inhibitor of BMP Signaling” (PLoS ONE, 2013).

Tests used:
Test in all cases: DSF thermal shift
Assay type in all cases: binding
Conditions in all cases: 10 µM inhibitor; read-out: Tm shift
[1] = biological target: T1, ALK4 (Homo sapiens, UniProt P36896)
T1 construct: purchased Invitrogen
T1 sequence (P36896 24-505): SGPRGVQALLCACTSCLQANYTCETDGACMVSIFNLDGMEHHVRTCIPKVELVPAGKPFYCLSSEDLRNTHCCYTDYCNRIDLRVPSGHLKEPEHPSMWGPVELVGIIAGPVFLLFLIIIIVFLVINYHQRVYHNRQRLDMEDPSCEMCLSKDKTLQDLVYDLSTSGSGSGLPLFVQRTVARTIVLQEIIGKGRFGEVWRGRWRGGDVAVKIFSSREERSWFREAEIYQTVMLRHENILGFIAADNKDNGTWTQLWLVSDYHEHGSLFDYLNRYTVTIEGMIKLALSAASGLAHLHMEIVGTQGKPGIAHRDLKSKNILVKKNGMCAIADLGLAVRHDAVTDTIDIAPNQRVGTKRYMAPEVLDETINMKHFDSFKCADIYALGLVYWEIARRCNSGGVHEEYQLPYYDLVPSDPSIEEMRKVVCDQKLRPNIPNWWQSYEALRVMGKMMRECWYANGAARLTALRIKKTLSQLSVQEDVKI
Experimental: (§1) Thermal melting experiments were performed using a Real Time PCR machine Mx3005p (Stratagene) with a protein concentration of 1–2 µM and 10 µM inhibitor as described previously, [25]. […] Recombinant human kinases for DSF screening were prepared by SGC using published methods, [36].

[2] = biological target: T2, AMPKα1 (Homo sapiens, UniProt Q13131)
T2 construct: purchased Nanosyn (enzymatic panel); SGC in-house recombinant human kinases (DSF panel); Invitrogen (ALK1-6)
T2 sequence (Q13131 whole entry): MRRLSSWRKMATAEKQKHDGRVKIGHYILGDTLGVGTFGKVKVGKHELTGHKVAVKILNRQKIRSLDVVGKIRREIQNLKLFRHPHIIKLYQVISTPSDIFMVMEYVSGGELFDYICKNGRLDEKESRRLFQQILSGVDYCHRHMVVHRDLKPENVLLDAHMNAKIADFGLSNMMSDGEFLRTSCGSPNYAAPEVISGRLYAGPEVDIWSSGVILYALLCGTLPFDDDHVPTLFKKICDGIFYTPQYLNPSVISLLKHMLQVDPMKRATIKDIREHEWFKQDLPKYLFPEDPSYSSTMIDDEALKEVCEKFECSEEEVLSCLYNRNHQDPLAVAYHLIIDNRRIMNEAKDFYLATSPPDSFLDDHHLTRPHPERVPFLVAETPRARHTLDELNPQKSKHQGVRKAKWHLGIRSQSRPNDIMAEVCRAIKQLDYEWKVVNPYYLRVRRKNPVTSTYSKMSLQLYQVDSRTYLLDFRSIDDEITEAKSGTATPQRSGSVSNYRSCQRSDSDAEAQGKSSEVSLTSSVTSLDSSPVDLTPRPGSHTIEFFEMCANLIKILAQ
T2 sequence (Q9Y478 whole entry partner): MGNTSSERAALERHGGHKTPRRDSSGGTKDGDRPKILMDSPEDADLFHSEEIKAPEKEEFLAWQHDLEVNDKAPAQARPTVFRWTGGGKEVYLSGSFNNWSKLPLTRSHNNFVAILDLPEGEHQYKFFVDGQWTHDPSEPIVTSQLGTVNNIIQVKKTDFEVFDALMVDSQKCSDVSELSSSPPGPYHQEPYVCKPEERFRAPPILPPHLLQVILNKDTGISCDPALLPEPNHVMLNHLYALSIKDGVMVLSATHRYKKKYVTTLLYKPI
T2 sequence (P54619 whole entry partner): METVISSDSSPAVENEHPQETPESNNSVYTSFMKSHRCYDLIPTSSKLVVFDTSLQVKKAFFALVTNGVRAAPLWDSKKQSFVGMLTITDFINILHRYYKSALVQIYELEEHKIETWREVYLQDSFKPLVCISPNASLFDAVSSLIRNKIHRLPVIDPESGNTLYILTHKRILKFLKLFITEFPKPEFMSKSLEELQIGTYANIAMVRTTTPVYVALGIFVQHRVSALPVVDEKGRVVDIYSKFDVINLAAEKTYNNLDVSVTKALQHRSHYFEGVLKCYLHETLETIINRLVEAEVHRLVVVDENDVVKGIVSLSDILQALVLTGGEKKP
Experimental: as §1

[3] = biological target: T3, ActRIIA (Homo sapiens, UniProt P27037)
T3 construct: purchased Nanosyn (enzymatic panel); SGC in-house recombinant human kinases (DSF panel); Invitrogen (ALK1-6)
T3 sequence (P27037 20-513): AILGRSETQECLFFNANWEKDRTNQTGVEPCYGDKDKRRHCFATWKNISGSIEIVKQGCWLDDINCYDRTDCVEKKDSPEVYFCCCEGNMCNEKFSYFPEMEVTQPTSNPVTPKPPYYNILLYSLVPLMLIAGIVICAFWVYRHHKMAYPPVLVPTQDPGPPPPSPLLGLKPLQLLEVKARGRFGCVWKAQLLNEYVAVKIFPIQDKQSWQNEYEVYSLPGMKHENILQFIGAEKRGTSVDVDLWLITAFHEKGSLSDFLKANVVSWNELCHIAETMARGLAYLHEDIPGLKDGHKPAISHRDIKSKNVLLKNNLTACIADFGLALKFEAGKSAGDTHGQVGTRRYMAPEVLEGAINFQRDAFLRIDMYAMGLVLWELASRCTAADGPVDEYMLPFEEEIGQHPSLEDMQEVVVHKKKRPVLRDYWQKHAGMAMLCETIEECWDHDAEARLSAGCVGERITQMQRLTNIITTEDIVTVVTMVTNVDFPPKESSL
Experimental: as §1

[4] = biological target: T4, CLK2 (Homo sapiens, UniProt P49760)
T4 construct: purchased Nanosyn (enzymatic panel); SGC in-house recombinant human kinases (DSF panel); Invitrogen (ALK1-6)
T4 sequence (P49760 whole entry): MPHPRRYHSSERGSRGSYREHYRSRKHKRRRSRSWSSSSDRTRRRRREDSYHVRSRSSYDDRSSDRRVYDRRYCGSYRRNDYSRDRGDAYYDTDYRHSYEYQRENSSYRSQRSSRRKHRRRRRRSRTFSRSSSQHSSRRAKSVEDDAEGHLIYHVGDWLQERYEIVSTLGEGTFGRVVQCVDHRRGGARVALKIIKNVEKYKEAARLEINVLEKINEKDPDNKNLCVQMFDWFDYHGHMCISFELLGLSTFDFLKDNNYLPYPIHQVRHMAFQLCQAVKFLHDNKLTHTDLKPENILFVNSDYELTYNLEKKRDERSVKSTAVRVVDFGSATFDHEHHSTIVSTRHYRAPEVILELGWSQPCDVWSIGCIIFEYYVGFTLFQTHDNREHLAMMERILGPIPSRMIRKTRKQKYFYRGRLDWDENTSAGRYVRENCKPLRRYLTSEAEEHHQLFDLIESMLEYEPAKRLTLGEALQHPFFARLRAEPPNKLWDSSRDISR
Experimental: as §1

[5] = biological target: T5, CLK3 (Homo sapiens, UniProt P49761)
T5 construct: purchased Nanosyn (enzymatic panel); SGC in-house recombinant human kinases (DSF panel); Invitrogen (ALK1-6)
Experimental: as §1

[6] = biological target: T6, CLK4 (Homo sapiens, UniProt Q9HAZ1)
T6 construct: purchased Nanosyn (enzymatic panel); SGC in-house recombinant human kinases (DSF panel); Invitrogen (ALK1-6)
Experimental: as §1

[7] = biological target: T7, FES (Homo sapiens, UniProt P07332)
T7 construct: purchased Nanosyn (enzymatic panel); SGC in-house recombinant human kinases (DSF panel); Invitrogen (ALK1-6)
T7 sequence (P07332 whole entry): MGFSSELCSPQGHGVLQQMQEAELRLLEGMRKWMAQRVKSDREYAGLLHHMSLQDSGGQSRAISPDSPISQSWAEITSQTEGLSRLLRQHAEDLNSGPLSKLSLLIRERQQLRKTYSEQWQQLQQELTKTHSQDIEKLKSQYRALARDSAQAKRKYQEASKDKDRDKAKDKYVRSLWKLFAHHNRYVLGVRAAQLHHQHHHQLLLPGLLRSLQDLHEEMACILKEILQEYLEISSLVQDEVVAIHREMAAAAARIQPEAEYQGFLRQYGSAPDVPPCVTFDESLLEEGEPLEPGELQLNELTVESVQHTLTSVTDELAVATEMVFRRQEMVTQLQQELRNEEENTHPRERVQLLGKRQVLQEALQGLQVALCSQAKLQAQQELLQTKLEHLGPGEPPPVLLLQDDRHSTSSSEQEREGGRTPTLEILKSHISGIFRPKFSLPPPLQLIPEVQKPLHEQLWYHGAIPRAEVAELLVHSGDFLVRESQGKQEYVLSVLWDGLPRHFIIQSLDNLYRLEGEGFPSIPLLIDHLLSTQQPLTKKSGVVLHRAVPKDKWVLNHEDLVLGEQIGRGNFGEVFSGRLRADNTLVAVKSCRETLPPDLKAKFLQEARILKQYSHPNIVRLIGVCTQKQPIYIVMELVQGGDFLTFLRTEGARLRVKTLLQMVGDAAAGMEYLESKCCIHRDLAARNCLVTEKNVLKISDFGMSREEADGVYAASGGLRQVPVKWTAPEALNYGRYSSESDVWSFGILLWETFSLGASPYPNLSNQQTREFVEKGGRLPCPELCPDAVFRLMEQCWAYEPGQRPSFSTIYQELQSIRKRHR
Experimental: as §1

[8] = biological target: T8, GRK1 (Homo sapiens, UniProt Q15835)
T8 construct: purchased Nanosyn (enzymatic panel); SGC in-house recombinant human kinases (DSF panel); Invitrogen (ALK1-6)
T8 sequence (Q15835 1-563): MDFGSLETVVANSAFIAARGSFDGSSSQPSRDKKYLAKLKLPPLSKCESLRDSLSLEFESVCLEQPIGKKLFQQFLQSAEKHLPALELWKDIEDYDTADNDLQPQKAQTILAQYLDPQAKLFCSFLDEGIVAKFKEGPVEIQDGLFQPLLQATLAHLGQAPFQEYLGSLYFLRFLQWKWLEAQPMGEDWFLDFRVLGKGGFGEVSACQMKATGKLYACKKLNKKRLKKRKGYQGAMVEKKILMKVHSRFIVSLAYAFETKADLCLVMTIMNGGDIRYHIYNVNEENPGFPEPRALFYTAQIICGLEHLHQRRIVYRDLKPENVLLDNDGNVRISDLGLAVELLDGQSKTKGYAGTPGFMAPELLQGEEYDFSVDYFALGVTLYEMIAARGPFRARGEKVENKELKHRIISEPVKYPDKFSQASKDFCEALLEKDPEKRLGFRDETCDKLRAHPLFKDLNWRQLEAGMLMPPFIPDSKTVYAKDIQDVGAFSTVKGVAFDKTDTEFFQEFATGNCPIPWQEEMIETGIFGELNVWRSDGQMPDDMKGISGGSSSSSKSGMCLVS
Experimental: as §1

[9] = biological target: T9, JNK1 (Homo sapiens, UniProt P45983)
T9 construct: purchased Nanosyn (enzymatic panel); SGC in-house recombinant human kinases (DSF panel); Invitrogen (ALK1-6)
T9 sequence (P45983 whole entry): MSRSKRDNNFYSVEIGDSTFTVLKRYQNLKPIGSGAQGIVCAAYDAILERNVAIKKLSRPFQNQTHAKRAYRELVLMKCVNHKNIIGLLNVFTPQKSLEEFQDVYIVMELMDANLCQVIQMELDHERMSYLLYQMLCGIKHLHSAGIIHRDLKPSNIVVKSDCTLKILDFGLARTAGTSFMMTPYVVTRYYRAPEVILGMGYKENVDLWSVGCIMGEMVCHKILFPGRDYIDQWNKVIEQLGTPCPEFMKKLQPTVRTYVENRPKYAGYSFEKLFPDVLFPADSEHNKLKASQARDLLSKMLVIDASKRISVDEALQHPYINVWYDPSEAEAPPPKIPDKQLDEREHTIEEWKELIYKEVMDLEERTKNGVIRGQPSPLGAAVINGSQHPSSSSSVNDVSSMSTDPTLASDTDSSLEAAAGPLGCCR
Experimental: as §1

[10] = biological target: T10, MEK2 (Homo sapiens, UniProt P36507)
T10 construct: purchased Nanosyn (enzymatic panel); SGC in-house recombinant human kinases (DSF panel); Invitrogen (ALK1-6)
T10 sequence (P36507 whole entry): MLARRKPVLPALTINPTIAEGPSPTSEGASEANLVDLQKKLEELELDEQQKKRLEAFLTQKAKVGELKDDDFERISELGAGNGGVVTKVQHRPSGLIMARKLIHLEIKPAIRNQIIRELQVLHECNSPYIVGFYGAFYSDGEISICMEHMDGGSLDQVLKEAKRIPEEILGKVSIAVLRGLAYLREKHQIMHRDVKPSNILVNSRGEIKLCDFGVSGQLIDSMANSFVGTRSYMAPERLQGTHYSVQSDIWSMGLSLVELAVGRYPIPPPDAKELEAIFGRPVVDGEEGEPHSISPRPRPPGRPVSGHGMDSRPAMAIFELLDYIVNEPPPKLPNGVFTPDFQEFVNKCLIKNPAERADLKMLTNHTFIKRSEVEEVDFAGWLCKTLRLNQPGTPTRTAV
Experimental: as §1

[11] = biological target: T11, MST3 (Homo sapiens, UniProt Q9Y6E0)
T11 construct: purchased Nanosyn (enzymatic panel); SGC in-house recombinant human kinases (DSF panel); Invitrogen (ALK1-6)
T11 sequence (Q9Y6E0 whole entry): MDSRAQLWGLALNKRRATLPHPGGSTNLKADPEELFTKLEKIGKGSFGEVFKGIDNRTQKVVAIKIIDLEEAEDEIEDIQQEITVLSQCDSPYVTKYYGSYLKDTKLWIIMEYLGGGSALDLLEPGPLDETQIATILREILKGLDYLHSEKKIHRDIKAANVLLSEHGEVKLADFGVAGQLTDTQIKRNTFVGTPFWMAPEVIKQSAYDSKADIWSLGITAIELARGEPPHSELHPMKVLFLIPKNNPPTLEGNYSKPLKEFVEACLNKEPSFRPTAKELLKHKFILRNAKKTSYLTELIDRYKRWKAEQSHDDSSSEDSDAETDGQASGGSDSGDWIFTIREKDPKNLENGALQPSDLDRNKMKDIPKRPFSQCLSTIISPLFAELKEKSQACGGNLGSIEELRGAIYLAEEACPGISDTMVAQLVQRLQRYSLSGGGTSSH
Experimental: as §1

[12] = biological target: T12, MST4 (Homo sapiens, UniProt Q9P289)
T12 construct: purchased Nanosyn (enzymatic panel); SGC in-house recombinant human kinases (DSF panel); Invitrogen (ALK1-6)
T12 sequence (Q9P289 whole entry): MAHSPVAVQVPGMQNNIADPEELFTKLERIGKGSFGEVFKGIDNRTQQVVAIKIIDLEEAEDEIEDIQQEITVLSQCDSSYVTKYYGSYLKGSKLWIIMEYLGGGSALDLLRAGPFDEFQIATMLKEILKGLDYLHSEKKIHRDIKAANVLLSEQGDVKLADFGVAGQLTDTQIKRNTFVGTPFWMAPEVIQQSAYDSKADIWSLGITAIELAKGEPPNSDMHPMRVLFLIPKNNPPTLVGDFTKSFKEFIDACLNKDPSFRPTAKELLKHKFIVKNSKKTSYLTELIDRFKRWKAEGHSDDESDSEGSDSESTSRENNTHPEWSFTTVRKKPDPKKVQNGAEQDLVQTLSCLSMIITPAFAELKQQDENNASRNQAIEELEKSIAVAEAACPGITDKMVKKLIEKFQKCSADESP
Experimental: as §1

[13] = biological target: T13, OSR1 (Homo sapiens, UniProt O95747)
T13 construct: purchased Nanosyn (enzymatic panel); SGC in-house recombinant human kinases (DSF panel); Invitrogen (ALK1-6)
Experimental: as §1

[14] = biological target: T14, PLK4 (Homo sapiens, UniProt O00444)
T14 construct: purchased Nanosyn (enzymatic panel); SGC in-house recombinant human kinases (DSF panel); Invitrogen (ALK1-6)
T14 sequence (O00444 1-970): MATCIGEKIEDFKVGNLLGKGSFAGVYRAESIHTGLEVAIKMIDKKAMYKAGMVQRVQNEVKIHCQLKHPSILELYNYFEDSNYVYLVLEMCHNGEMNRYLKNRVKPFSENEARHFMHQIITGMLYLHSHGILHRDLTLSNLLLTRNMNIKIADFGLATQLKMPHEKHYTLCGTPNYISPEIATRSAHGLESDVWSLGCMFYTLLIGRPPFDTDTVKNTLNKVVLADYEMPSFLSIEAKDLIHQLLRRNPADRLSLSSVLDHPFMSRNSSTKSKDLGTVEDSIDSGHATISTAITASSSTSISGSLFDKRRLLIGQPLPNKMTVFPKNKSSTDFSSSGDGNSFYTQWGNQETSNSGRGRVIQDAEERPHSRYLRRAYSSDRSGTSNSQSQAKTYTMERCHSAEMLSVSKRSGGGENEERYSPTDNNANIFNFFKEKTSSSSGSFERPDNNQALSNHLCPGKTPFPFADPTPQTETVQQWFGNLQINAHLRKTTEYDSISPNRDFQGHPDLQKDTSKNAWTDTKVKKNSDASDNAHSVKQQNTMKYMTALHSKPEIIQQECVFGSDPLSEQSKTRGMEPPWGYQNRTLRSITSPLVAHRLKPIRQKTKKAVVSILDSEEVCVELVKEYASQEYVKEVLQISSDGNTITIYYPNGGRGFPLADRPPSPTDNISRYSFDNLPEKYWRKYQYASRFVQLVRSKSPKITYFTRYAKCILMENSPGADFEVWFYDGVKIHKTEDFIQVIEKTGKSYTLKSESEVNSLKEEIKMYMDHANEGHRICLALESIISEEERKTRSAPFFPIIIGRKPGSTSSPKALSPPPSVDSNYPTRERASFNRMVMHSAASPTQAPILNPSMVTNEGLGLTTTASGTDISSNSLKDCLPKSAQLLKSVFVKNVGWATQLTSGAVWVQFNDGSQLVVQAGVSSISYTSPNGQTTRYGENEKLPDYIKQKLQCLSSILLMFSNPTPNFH
Experimental: as §1

[15] = biological target: T15, SLK (Homo sapiens, UniProt Q9H2G2)
T15 construct: purchased Nanosyn (enzymatic panel); SGC in-house recombinant human kinases (DSF panel); Invitrogen (ALK1-6)
Experimental: as §1

ΔTm at 10 µM [1] | ΔTm at 10 µM [2] | ΔTm at 10 µM [3] | ΔTm at 10 µM [4] | ΔTm at 10 µM [5] | ΔTm at 10 µM [6] | ΔTm at 10 µM [7] | ΔTm at 10 µM [8] | ΔTm at 10 µM [9] | ΔTm at 10 µM [10] | ΔTm at 10 µM [11] | ΔTm at 10 µM [12] | ΔTm at 10 µM [13] | ΔTm at 10 µM [14] | ΔTm at 10 µM [15] | Compound
6.1 °C | 3.9 °C | 6.1 °C | 5 °C | 3.7 °C | 8.7 °C | 0.5 °C | 0.4 °C | 0 °C | -0.1 °C | 4.6 °C | 0.7 °C | 1.6 °C | 4.2 °C | 1.6 °C | c1cc(-c2cnn3cc(-c4ccc(OCCN5CCCCC5)cc4)cnc23)ccn1 [Dorsomorphin]
8.2 °C | 0.2 °C | 8.3 °C | 0 °C | 0 °C | 0.3 °C | 0.4 °C | 0 °C | 0.2 °C | 2.4 °C | 0.3 °C | 0.2 °C | 0 °C | 0 °C | 1 °C | COc1cc(-c2cc(-c3cccc(O)c3)cnc2N)cc(OC)c1OC [K02288, 3-[6-amino-5-(3,4,5-trimethoxy-phenyl)-pyridin-3-yl]-phenol]

Compound | ΔTm at 10 µM [1] | ΔTm at 10 µM [2] | ΔTm at 10 µM [3] | ΔTm at 10 µM [4] | ΔTm at 10 µM [5] | ΔTm at 10 µM [6] | ΔTm at 10 µM [7] | ΔTm at 10 µM [8] | ΔTm at 10 µM [9] | ΔTm at 10 µM [10] | ΔTm at 10 µM [11] | ΔTm at 10 µM [12] | ΔTm at 10 µM [13] | ΔTm at 10 µM [14] | ΔTm at 10 µM [15]
c1ccc2c(-c3cnn4cc(-c5ccc(N6CCNCC6)cc5)cnc34)ccnc2c1 [LDN-193189] | 11 °C | 4.3 °C | 8.6 °C | 3.3 °C | 0.7 °C | 5.3 °C | 0.4 °C | -0.7 °C | 0.5 °C | 2.1 °C | 7.9 °C | 0.8 °C | 0.9 °C | 3.7 °C | 1.2 °C
